Experimental data published in ChEMBL document CHEMBL1201862, “PubChem BioAssay data set” (2004).
Activity calls are given as the source filed them.

How the values were obtained:
Kallikrein-7 = Kallikrein-7 (Homo sapiens, UniProt P49862); assay: Fluorescence Intensity-based biochemical primary high throughput dose response assay to identify activators of kallikrein-7 (K7) zymogen.
Caspase-6 = target: T1, Caspase-6 (Homo sapiens, UniProt P55212); assay: inhibition of CASP6 peptide cleavage – biochemical, VEID-R110 fluorescence, cherry-pick, dose response (AID 720632)
T1 sequence (P55212 whole entry): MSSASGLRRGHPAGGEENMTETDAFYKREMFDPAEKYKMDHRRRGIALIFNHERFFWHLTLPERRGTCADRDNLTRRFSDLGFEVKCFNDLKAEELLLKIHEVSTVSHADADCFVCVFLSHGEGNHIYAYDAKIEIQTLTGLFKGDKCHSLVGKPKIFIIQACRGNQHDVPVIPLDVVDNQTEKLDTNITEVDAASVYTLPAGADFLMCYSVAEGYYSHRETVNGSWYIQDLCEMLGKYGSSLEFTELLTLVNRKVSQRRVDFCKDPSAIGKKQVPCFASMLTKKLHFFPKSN

[1] = target: T2, Carboxy-terminal domain RNA polymerase II polypeptide A small phosphatase 1 (Homo sapiens, UniProt Q9GZU7); assay: CTDSP1 inhibitors, concentration-response, biochemical, absorbance readout, ultra-high-throughput screen actives (AID 540297); format: functional
T2 sequence (Q9GZU7 whole entry): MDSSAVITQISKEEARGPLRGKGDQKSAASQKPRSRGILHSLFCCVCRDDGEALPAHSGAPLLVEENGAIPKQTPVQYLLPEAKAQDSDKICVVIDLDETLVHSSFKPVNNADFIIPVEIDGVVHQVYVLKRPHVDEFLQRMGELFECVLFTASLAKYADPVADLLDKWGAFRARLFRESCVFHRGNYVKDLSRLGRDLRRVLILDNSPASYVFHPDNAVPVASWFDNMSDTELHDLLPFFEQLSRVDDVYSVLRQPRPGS

Mucolipin-3 = target: T3, Mucolipin-3 (Homo sapiens, UniProt Q8TDD5); assay: Dose response cell-based high-throughput screening assay for agonists of the transient receptor potential channel ML3 (TRPML3). [Related pubchem assays: 1526, 1424, 1448 ]; format: functional
T3 sequence (Q8TDD5 whole entry): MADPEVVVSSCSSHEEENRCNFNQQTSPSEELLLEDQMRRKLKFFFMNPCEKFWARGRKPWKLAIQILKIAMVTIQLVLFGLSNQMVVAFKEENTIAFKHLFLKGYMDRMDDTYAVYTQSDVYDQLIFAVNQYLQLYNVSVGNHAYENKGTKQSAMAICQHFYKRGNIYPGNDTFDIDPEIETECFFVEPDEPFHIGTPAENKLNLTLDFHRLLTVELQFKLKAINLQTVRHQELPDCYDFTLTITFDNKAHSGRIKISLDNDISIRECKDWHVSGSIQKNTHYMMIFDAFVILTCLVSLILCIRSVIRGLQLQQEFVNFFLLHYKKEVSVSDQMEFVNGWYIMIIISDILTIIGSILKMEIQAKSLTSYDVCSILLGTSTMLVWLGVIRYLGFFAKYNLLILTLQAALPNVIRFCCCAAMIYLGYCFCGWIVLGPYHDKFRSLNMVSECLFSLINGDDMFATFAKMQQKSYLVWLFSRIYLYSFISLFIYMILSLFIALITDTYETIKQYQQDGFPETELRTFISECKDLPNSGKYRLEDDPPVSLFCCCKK

Ion channel NompC = Ion channel NompC (Danio rerio, UniProt Q7T1G6); assay: Fluorescence counterscreen assay for TRPML3 agonists: dose response cell-based high-throughput screening assay to identify agonists of the transient receptor potential channel N1 (TRPN1). [Related pubchem assays: 1526, 1424, 1448 ]; format: functional
HEK293 [2] = assay: NOD2 signaling inhibitors in MDP-stimulated cells, cell-based, uHTS, luminescence (AID 2001); format: functional; conditions: Homo sapiens
HEK293 [3] = assay: cells; format: functional, cell-based; conditions: Homo sapiens
HEK293 [4] = assay: inhibition of NOD1-driven NF-kB reporter – cell-based, luminescence, uHTS, primary screen (AID 1578); format: functional; conditions: Homo sapiens
HEK293 [5] = assay: cells; format: functional, cell-based; conditions: Homo sapiens; remark: listed apart in the source
Aminopeptidase N = target: T4, Aminopeptidase N (Plasmodium falciparum FcB1/Columbia, UniProt O96935); assay: malaria alanyl aminopeptidase activity blockers – biochemical, fluorogenic H-Leu-NHMec substrate, 1536-well (AID 1445); set-up: species or system Plasmodium falciparum 3D7, 3D7
T4 sequence (O96935 whole entry): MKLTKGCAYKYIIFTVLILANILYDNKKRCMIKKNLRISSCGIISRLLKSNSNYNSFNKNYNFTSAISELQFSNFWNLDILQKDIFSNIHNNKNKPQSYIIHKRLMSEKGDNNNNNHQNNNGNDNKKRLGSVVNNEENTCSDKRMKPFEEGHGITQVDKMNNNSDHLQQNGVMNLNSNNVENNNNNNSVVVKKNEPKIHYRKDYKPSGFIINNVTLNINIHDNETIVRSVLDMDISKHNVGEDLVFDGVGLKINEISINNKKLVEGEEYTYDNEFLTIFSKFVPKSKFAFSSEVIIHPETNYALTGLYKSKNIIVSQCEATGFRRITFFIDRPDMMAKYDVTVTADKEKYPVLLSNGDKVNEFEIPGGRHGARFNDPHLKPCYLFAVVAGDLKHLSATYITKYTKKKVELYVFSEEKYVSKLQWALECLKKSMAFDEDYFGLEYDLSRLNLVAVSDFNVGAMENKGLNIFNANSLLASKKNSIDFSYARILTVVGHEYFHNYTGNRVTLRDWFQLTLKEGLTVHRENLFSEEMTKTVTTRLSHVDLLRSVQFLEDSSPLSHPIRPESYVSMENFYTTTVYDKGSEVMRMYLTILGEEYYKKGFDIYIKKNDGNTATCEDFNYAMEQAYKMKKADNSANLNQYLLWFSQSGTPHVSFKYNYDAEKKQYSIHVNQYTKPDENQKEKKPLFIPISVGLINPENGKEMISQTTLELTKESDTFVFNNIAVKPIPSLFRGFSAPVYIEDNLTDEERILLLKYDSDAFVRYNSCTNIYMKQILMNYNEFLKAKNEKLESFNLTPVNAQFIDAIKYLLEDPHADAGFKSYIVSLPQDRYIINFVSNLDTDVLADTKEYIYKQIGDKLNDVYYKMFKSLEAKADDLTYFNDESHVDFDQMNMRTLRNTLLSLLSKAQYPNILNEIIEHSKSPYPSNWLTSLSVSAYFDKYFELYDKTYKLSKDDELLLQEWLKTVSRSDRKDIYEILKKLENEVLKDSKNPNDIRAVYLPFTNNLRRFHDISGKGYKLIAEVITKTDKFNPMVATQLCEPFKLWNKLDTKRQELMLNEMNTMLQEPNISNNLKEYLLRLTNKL

[6] = A cytotoxicity screen of small molecule inhibitors of the PhoP region in Salmonella typhi identified in the primary screen. [Related pubchem assays: 1850, 1864, 1985 ]; format: functional

Chain of Ion channel NompC (Q7T1G6 whole entry): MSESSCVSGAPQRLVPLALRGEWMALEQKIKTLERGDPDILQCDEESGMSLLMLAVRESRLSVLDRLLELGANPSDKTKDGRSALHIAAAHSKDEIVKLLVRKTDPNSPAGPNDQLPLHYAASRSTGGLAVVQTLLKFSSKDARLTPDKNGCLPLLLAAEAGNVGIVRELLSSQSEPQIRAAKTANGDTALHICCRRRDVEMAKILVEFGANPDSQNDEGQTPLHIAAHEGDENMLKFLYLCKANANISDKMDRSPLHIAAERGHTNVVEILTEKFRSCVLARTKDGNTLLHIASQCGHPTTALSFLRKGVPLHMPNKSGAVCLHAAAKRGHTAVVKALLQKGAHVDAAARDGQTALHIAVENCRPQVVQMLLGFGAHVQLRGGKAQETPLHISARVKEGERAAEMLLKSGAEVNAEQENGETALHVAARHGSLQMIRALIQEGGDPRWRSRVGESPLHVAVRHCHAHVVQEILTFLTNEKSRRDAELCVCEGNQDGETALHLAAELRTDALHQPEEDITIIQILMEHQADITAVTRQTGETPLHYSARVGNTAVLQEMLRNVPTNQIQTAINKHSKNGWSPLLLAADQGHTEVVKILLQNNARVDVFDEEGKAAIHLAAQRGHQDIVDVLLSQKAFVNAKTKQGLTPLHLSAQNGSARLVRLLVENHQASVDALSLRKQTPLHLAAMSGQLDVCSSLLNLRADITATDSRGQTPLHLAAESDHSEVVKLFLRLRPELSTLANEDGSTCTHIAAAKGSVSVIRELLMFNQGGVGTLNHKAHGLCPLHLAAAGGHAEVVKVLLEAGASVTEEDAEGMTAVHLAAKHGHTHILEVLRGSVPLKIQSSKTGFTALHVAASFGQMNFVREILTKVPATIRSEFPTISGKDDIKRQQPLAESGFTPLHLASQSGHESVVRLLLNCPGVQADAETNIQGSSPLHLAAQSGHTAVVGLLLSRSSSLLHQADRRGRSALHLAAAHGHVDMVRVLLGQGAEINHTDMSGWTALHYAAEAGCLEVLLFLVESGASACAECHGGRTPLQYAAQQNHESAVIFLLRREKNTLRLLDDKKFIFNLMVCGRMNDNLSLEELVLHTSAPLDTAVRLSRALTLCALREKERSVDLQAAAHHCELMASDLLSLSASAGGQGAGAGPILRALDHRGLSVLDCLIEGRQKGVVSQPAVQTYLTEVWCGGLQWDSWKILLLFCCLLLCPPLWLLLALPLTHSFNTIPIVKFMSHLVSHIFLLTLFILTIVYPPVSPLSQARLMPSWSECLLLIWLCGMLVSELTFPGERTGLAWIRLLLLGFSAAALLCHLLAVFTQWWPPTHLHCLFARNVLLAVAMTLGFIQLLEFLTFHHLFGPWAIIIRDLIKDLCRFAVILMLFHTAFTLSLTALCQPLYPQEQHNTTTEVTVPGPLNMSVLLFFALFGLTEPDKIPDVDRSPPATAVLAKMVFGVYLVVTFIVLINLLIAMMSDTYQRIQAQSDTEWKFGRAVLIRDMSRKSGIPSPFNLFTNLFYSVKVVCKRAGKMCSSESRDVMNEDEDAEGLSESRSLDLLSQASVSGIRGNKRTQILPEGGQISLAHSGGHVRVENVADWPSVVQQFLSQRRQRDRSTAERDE
Chain of Kallikrein-7 (P49862 whole entry): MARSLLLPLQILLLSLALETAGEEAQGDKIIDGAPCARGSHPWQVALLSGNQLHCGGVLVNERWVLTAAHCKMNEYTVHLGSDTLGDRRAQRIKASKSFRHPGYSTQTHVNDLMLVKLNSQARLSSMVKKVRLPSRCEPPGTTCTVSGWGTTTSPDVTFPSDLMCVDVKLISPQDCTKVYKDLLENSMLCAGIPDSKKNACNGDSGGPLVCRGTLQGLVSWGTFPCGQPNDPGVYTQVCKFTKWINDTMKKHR

With `CC(=O)Nc1ccc(C2Nc3ccccc3C(=O)N2C2CCCCC2)cc1` (configuration not stated) the EC50 (Kallikrein-7) was > 69.5 µM (inactive).

With `O=C1CN(C(=O)COC(=O)c2ccc([N+](=O)[O-])o2)c2ccccc2N1` the AC50 (Caspase-6) was 15.1 µM (active).

In the case of `Nc1cc([N+](=O)[O-])ccc1N1C(=O)CCCC1=O`, the AC50 (Caspase-6) was 18.3 µM (active) and the IC50 [1] was 10.8 µM (active).

For `Cc1cccc(CC2CC(=O)N(C3CCCCC3)C2=O)c1` (configuration not stated), the EC50 (Mucolipin-3) was 3.41 µM (active) and the EC50 (Ion channel NompC) was > 29.9 µM (not active).

For `CCOc1ccc(NC(=O)c2ccccc2NS(=O)(=O)c2ccc(F)cc2)c([N+](=O)[O-])c1`, the EC50 (Mucolipin-3) was 5.29 µM (active), the IC50 (HEK293 [2]) was 11.8 µM (inactive) and the IC50 (HEK293 [3]) was > 20 µM (inactive). For the same molecule, the EC50 (HEK293 [4]) was 4.21 µM (active), the EC50 (Ion channel NompC) was > 29.9 µM (not active) and the IC50 (HEK293 [5]) was 19 µM (active).

In the case of `CC1CCCCC1NC(=O)CSc1nnc(-c2ccccc2)n1N` (configuration not stated), the IC50 (Aminopeptidase N) was 46.8 µM (active).

For `Cc1cccn2c(=O)c3cc(C(=O)NC4CCS(=O)(=O)C4)sc3nc12` (configuration not stated), the EC50 (Kallikrein-7) was 25.1 µM (inactive).

For `CC1CCCC(C)N1C(=O)CN1CCN(c2nc(-c3ccc(F)cc3)cs2)CC1` (configuration not stated), the EC50 (Mucolipin-3) was 27.4 µM (not active) and the EC50 (Ion channel NompC) was > 29.9 µM (not active).

For `COc1ccc(C2=NN3C(C2)c2ccccc2OC3c2cccs2)cc1` (configuration not stated), the EC50 [6] was > 50 µM (active).
